In patent US10752612B2, “PLK4 inhibitors” (LUDWIG INSTITUTE FOR CANCER RESEARCH LTD, priority 2015, dated 2020) one finds IC50 data, which are given here for 60 compounds.

The structures appear in SMILES notation.

This experiment concerns the target T1, human Plk4 kinase domain (aa 2-275) (Homo sapiens, UniProt O00444).
T1 construct: purified 6×His-tagged human Plk4 kinase domain (aa 2-275); 6xHis; made in house; host or cells: E. coli
T1 sequence (O00444 2-275): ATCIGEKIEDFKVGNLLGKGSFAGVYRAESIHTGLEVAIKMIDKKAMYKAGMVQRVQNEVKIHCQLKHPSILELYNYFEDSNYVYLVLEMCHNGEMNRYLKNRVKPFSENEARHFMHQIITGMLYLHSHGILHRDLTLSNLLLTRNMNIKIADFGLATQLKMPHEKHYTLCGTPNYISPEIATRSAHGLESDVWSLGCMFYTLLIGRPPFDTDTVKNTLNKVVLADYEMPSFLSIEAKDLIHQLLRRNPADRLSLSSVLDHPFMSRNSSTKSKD
The experiment in a line: Plk4 kinase assay (ADP-Glo). The settings on record: Table 1. It counts as biochemical. In short, it runs like this: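 Enzyme at 2.5-10 nM final, pH 8.0, reacted 4-16 hours at 25° C; ADP generation read by ADP-Glo luminescence. Ki derived from IC50 by Cheng-Prusoff or, for tight binders, Copeland formalism.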
In general terms: ADP-Glo turns the ADP formed in a reaction into a luminescent signal.
As for `Cc1cc(Nc2nc(Sc3ccc(NC(=O)C4CC4)cc3)nc(N3CCN(C)CC3)c2C)n[nH]1`, the IC50 (in general, the point on the concentration scale where inhibition reaches its midpoint) was < 1000 nM.
Take `CCN1CCN(c2nc(Sc3ccc(NC(=O)C4CC4)cc3)nc(Nc3cc(C)[nH]n3)c2OC)CC1`: the IC50 was < 1000 nM.
The same measure for `COCCN1CCN(c2nc(Sc3ccc(NC(=O)C4CC4)cc3)nc(Nc3cc(C)[nH]n3)c2OC)CC1`: < 1000 nM.
The value for `COc1c(Nc2cc(C)[nH]n2)nc(Sc2ccc(NC(=O)C3CC3)cc2)nc1N1CCN(CCN(C)C)CC1` was < 1000 nM; that for `Cc1cc(Nc2nc(Sc3ccc(NC(=O)C4CC4)cc3)nc(N(C)C(C)C)c2C)n[nH]1` was < 1000 nM; that for `COCCNc1nc(Sc2ccc(NC(=O)C3CC3)cc2)nc(Nc2cc(C)[nH]n2)c1C` was < 1000 nM.
On to `Cc1cc(Nc2nc(Sc3ccc(NC(=O)C4CC4)cc3)nc(N3CCCCC3)c2C)n[nH]1`, for which the IC50 was < 1000 nM.
The value for `CNc1nc(Sc2ccc(NC(=O)C3CC3)cc2)nc(Nc2cc(C)[nH]n2)c1C` was < 1000 nM; that for `COc1c(Nc2cc(C)[nH]n2)nc(Sc2ccc(S(=O)(=O)C(C)(C)c3c(F)c(F)c(F)c(F)c3F)cc2F)nc1N1CCC(CCN(C)C)CC1` was < 1000 nM.
Consider `COc1c(Nc2cc(C)[nH]n2)nc(Sc2ccc(S(=O)(=O)C(C)(C)c3c(F)c(F)cc(F)c3F)cc2F)nc1N1CCC(NC(C)=O)C1` (stereo not drawn), for which the IC50 was < 1000 nM.
On to `COc1c(Nc2cc(C)[nH]n2)nc(Sc2ccc(S(=O)(=O)C(C)(C)c3c(F)c(F)cc(F)c3F)cc2F)nc1N1CCC(OC)CC1`, for which the IC50 is < 1000 nM.
On to `COc1ccc(CS(=O)(=O)c2ccc(Sc3nc(Nc4cc(C)[nH]n4)c(OC)c(N4CCOCC4)n3)c(F)c2)cc1`, for which the IC50 is < 1000 nM.
The same measure for `CNC1CCN(c2nc(Sc3ccc(S(=O)(=O)C(C)(C)c4cccc([N+](=O)[O-])c4F)cc3F)nc(Nc3cc(C)[nH]n3)c2OC)CC1`: < 1000 nM; for `COc1c(Nc2cc(C)[nH]n2)nc(Sc2ccc(S(=O)(=O)C(C)(C)c3cccnc3)cc2)nc1N1CCN(CCN(C)C)CC1`: < 1000 nM; for `COc1c(Nc2cc(C)[nH]n2)nc(Sc2ccc(S(=O)(=O)Cc3cccc([N+](=O)[O-])c3F)cc2F)nc1N1CCN(C)CC1`: < 1000 nM.
The value for `COc1c(Nc2cc(C)[nH]n2)nc(Sc2ccc(S(=O)(=O)Cc3ccccc3)cc2)nc1N1CCN(Cc2ccncc2)CC1` was < 1000 nM; that for `COc1c(Nc2cc(C)[nH]n2)nc(Sc2ccc(S(=O)(=O)Cc3cccc(C#N)c3)cc2)nc1N1CCN(CCN(C)C)CC1` was < 1000 nM.
For `COc1ccccc1CS(=O)(=O)c1ccc(Sc2nc(Nc3cc(C)[nH]n3)c(OC)c(N3CCN(CCN(C)C)CC3)n2)cc1`, the IC50 was < 1000 nM.
The value for `COc1c(Nc2cc(C)[nH]n2)nc(Sc2ccc(S(=O)(=O)Cc3cccc(C)c3)cc2)nc1N1CCN(CCN(C)C)CC1` was < 1000 nM; that for `COc1cccc(CS(=O)(=O)c2ccc(Sc3nc(Nc4cc(C)[nH]n4)c(OC)c(N4CCN(CCN(C)C)CC4)n3)cc2)c1` was < 1000 nM.
Regarding `CCOc1c(Nc2cc(C)[nH]n2)nc(Sc2ccc(NC(=O)C3CC3)cc2)nc1N1CCC(O)CC1`, the IC50 was < 1000 nM.
`COc1c(Nc2cc(C)[nH]n2)nc(Sc2ccc(N)cc2)nc1N1CCN(CCN(C)C)CC1`: the IC50 fell in the range of 100 to 1000 nM.
The same measure for `COc1c(Nc2cc(C)[nH]n2)nc(Sc2ccccc2)nc1N1CCN(CCN(C)C)CC1`: 100 to 1000 nM.
Take `COc1c(Nc2cc(C)[nH]n2)nc(SC)nc1N1CCN(CCN(C)C)CC1`: the IC50 was 100 to 1000 nM.
In the case of `CC(=O)Nc1ccc(Sc2nc(Nc3cc(C)[nH]n3)c(C)c(N3CCC(O)CC3C)n2)cc1` (stereo not drawn), the IC50 is < 1000 nM.
Turning to `COc1c(Nc2cc(C)[nH]n2)nc(Sc2ccc(NC(C)=O)cc2)nc1N1CCN(CCN2CCOCC2)CC1`, the IC50 was < 1000 nM.
The value for `CC(=O)Nc1ccc(Sc2nc(Nc3cc(C)[nH]n3)c(C)c(N3CCC(OCCN(C)C)CC3)n2)cc1` was < 1000 nM; that for `CC(=O)Nc1ccc(Sc2nc(Nc3cc(C)[nH]n3)c(C)c(N3CCOC[C@@H]3C)n2)cc1` was < 1000 nM; that for `COc1c(Nc2cc(C)[nH]n2)nc(Sc2ccc(NC(C)=O)cc2)nc1N1CCN(CCN2CCCCC2)CC1` was < 1000 nM.
Consider `COc1c(Nc2cc(C)[nH]n2)nc(Sc2ccc(NC(C)=O)cc2)nc1N1CCC(OCCN(C)C)CC1`, for which the IC50 is 100 to 1000 nM.
The same measure for `COc1c(Nc2cc(C)[nH]n2)nc(Sc2ccc(NC(C)=O)cc2)nc1N1CCN(CCCN(C)C)CC1`: < 1000 nM; for `COc1c(Nc2c[nH]c(C)c2)nc(Sc2ccc(NC(C)=O)cc2)nc1N1CCC(O)C1` (stereo not drawn): < 1000 nM; for `CSc1nc(Nc2cc(C)[nH]n2)c(C)c(N2CCN(CCN(C)C)CC2)n1`: < 1000 nM.
On to `COc1c(Nc2cc(C)[nH]n2)nc(Sc2ccc(NC(=O)C(F)(F)F)cc2)nc1N1CCN(CCN(C)C)CC1`, for which the IC50 is < 1000 nM.
For `CNC(=O)Nc1ccc(Sc2nc(Nc3cc(C)[nH]n3)c(OC)c(N3CCN(CCN(C)C)CC3)n2)cc1`, the IC50 was < 1000 nM.
The value for `CC(=O)Nc1ccc(Sc2nc(Nc3cc(C)[nH]n3)c(C)c(N3CCOC[C@H]3C)n2)cc1` was < 1000 nM.
On to `COc1c(Nc2cc(C)[nH]n2)nc(Sc2ccc(NC(C)=O)cc2)nc1N1CCN(CCNC(C)=O)CC1`, for which the IC50 was < 1000 nM.
The value for `CNCCN1CCN(c2nc(Sc3ccc(NC(C)=O)cc3)nc(Nc3cc(C)[nH]n3)c2OC)CC1` was < 1000 nM; that for `COc1c(Nc2cc(C)[nH]n2)nc(Sc2ccc(S(=O)(=O)Cc3ccccc3F)cc2)nc1N1CCOCC1` was < 1000 nM; that for `COc1c(Nc2cc(C)[nH]n2)nc(Sc2ccc(S(=O)(=O)Cc3ccccc3[N+](=O)[O-])cc2)nc1N1CCN(CCN(C)C)CC1` was < 1000 nM.
The value for `COc1c(Nc2cc(C)[nH]n2)nc(Sc2ccc(NC(C)=O)cc2)nc1N1CCOC[C@@H]1C` was < 1000 nM; that for `COc1c(Nc2cc(C)[nH]n2)nc(Sc2ccc(NC(C)=O)cc2)nc1N1CCOC[C@H]1C` was < 1000 nM.
The value for `COc1c(Nc2cc(C)[nH]n2)nc(Sc2ccc(NC(N)=O)cc2)nc1N1CCN(CCN(C)C)CC1` was < 1000 nM; that for `COc1c(Nc2cc(C)[nH]n2)nc(Sc2ccc(S(=O)(=O)Cc3cccc(C(F)(F)F)c3)cc2)nc1N1CCN(CCN(C)C)CC1` was < 1000 nM; that for `COc1c(Nc2cc(C)[nH]n2)nc(Sc2ccc(S(=O)(=O)Cc3cccc(F)c3F)cc2)nc1N1CCN(CCN(C)C)CC1` was < 1000 nM.
Take `CC(=O)Nc1ccc(Sc2nc(Nc3cc(C)[nH]n3)c(C)c(NC3CCN(C)CC3)n2)cc1`: the IC50 is < 1000 nM.
The value for `CC(=O)Nc1ccc(Sc2nc(Nc3cc(C)[nH]n3)c(C)c(NC3CCNCC3)n2)cc1` was < 1000 nM; that for `COc1c(Nc2cc(C)[nH]n2)nc(Sc2ccc(NC(C)=O)cc2)nc1N1CCN(CC(=O)N(C)C)CC1` was < 1000 nM.
As for `COc1c(Nc2cc(C)[nH]n2)nc(Sc2ccc(NC(C)=O)cc2)nc1NC1CCN(C)CC1`, the IC50 was < 1000 nM.
`COc1c(Nc2cc(C)[nH]n2)nc(Sc2ccc(NC(C)=O)cc2)nc1N1CCN(C(=O)N(C)C)CC1`: the IC50 was < 1000 nM.
Regarding `COc1c(Nc2cc(C)[nH]n2)nc(Sc2ccc(NC(C)=O)cc2)nc1N1CCC(CCN2CCOCC2)CC1`, the IC50 is < 1000 nM.
On to `CCOc1c(Nc2cc(C)[nH]n2)nc(Sc2ccc(NC(=O)C3CC3)cc2)nc1N1CCNCC1` [drawing 122], for which the IC50 was < 1000 nM.
For the compound `CCOc1c(Nc2cc(C)[nH]n2)nc(Sc2ccc(NC(=O)C3CC3)cc2)nc1N(CC)CC` [drawing 123], the IC50 is < 1000 nM.
The same measure for `CCOc1c(Nc2cc(C)[nH]n2)nc(Sc2ccc(NC(=O)C3CC3)cc2)nc1N(C)CC` [drawing 124]: < 1000 nM; for `CCOc1c(Nc2cc(C)[nH]n2)nc(Sc2ccc(NC(=O)C3CC3)cc2)nc1N(C)C` [drawing 125]: < 1000 nM.
The value for `CCOc1c(Nc2cc(C)[nH]n2)nc(Sc2ccc(NC(=O)C3CC3)cc2)nc1N1CCNCC1` [drawing 126] was 100 to 1000 nM; that for `CCOc1c(Nc2cc(C)[nH]n2)nc(Sc2ccc(NC(=O)C3CC3)cc2)nc1N(CC)CC` [drawing 127] was 100 to 1000 nM.
The compound `CCOc1c(Nc2cc(C)[nH]n2)nc(Sc2ccc(NC(=O)C3CC3)cc2)nc1N(C)CC` [drawing 128] showed an IC50 of 100 to 1000 nM.
`CCOc1c(Nc2cc(C)[nH]n2)nc(Sc2ccc(NC(=O)C3CC3)cc2)nc1N(C)C` [drawing 129] registered an IC50 of 100 to 1000 nM.
The value for `COc1c(Nc2cc(C)[nH]n2)nc(Sc2ccc(S(=O)(=O)Cc3cccc([N+](=O)[O-])c3F)cc2F)nc1N1CCCCC1` [drawing 379] was < 1000 nM.
